Data from ChEMBL document CHEMBL5634090, “Design of phenothiazine-based cationic amphiphilic derivatives incorporating arginine residues: Potential membrane-active broad-spectrum antimicrobials combating pathogenic bacteria in vitro and in vivo” (Eur J Med Chem, 2023).
Values after ≈ are worked out from the molar mass of the structure shown. Active and inactive are the calls of the source. The rule behind the calls is not given here.

Legend:
[1] = system: Staphylococcus aureus; experiment: Antibacterial activity against Staphylococcus aureus ATCC 29213 in presence of 19 umol/L Zn2+ by broth microdilution method; type: functional
[2] = system: Staphylococcus aureus; experiment: Antibacterial activity against Staphylococcus aureus ATCC 29213 assessed as log reduction in bacterial load at 4 times MIC measured after 2 hrs by time kill assay; type: functional
[3] = system: Staphylococcus aureus; experiment: Antibacterial activity against Staphylococcus aureus ATCC 29213 infected in cyclophosphamide immunosuppressed keratitis mouse model assessed as log reduction in number of viable bacterial colonies at 10 mg/ml administrated tropically; type: functional
[4] = system: Staphylococcus aureus; experiment: Antibacterial activity against methicillin resistant Staphylococcus aureus NCTC 10442 in presence of 19 umol/L Zn2+ by broth microdilution method; type: functional
[5] = system: Klebsiella pneumoniae; experiment: Antibacterial activity against Klebsiella pneumoniae ATCC 10031 in presence of 140 mmol/L Na+ by broth microdilution method; type: functional
[6] = system: Staphylococcus aureus; experiment: Antibiofilm activity against 24 hrs preformed biofilm in Staphylococcus aureus ATCC 29213 assessed as reduction in biofilm viability at 3.125 ug/ml relative to control; type: functional; conditions: dose 3.125 µg/ml
[7] = system: Klebsiella pneumoniae; experiment: Antibacterial activity against Klebsiella pneumoniae ATCC 10031 assessed as log reduction in bacterial load at 4 times MIC measured after 2 hrs by time kill assay; type: functional
[8] = system: Klebsiella pneumoniae; experiment: Antibacterial activity against Klebsiella pneumoniae ATCC 10031 assessed as loss in cell viability at 8 times MIC incubated for 4 hrs by LIVE/DEAD BacLight bacterial viability assay; type: functional, organism-based; conditions: Cell membrane
[9] = system: Pseudomonas aeruginosa; experiment: Antibacterial activity against Pseudomonas aeruginosa ATCC 9027 infected in cyclophosphamide immunosuppressed keratitis mouse model assessed as reduction in corneal injury at 10 mg/ml administrated tropically; type: functional, organism-based
[10] = system: Staphylococcus aureus; experiment: Antibacterial activity against methicillin resistant Staphylococcus aureus N315 in presence of 4.5 mmol/L K+ by broth microdilution method; type: functional
[11] = system: Klebsiella pneumoniae; experiment: Antibiofilm activity against 24 hrs preformed biofilm in Klebsiella pneumoniae ATCC 10031 assessed as reduction in biofilm viability at 25 ug/ml relative to control; type: functional; conditions: dose 25 µg/ml
[12] = system: Staphylococcus aureus; experiment: Antibacterial activity against methicillin resistant Staphylococcus aureus N315 in presence of 20 umol/L Fe3+ by broth microdilution method; type: functional
[13] = system: Klebsiella pneumoniae; experiment: Antibacterial activity against Klebsiella pneumoniae ATCC 14581 in presence of 2.5 mmol/L Ca2+ by broth microdilution method; type: functional
[14] = system: Klebsiella pneumoniae; experiment: Antibacterial activity against Klebsiella pneumoniae ATCC 14581 in presence of 1 mmol/L Mg2+ by broth microdilution method; type: functional
[15] = system: Staphylococcus aureus; experiment: Antibacterial activity against methicillin resistant Staphylococcus aureus NCTC 10442 in presence of 20 umol/L Fe3+ by broth microdilution method; type: functional
[16] = system: Escherichia coli; experiment: Antibacterial activity against Escherichia coli ATCC 25922 in presence of 19 umol/L Zn2+ by broth microdilution method; type: functional
[17] = Cytotoxicity against HEK293 cells assessed as cell survival rate at 50 ug/ml by CCK-8 assay relative to control; type: toxicity, cell-based; conditions: human, at 50 µg/mL, read-out: Activity
[18] = system: Staphylococcus aureus; experiment: Antibacterial activity against Staphylococcus aureus ATCC 29213 in presence of 140 mmol/L Na+ by broth microdilution method; type: functional
[19] = system: Klebsiella pneumoniae; experiment: Induction of resistance development in Klebsiella pneumoniae ATCC 10031 assessed as fold increase in MIC treated over 20 serial passages by microdilution assay; type: functional
[20] = system: Staphylococcus aureus; experiment: Antibacterial activity against Staphylococcus aureus ATCC 29213 in presence of 4.5 mmol/L K+ by broth microdilution method; type: functional
[21] = system: Staphylococcus aureus; experiment: Antibacterial activity against methicillin resistant Staphylococcus aureus N315 in presence of 2.5 mmol/L Ca2+ by broth microdilution method; type: functional
[22] = system: Staphylococcus aureus; experiment: Antibiofilm activity against 24 hrs preformed biofilm in Staphylococcus aureus ATCC 29213 assessed as reduction in biofilm viability at 6.25 ug/ml relative to control; type: functional; conditions: dose 6.25 µg/ml
[23] = Selectivity index, ratio of CC50 for cytotoxicity against mouse NCTC clone 929 cells to MIC for antibacterial activity against methicillin resistant Staphylococcus aureus NCTC 10442; type: toxicity, cell-based; conditions: read-out: Selectivity Index
[24] = system: Klebsiella pneumoniae; experiment: Antibacterial activity against Klebsiella pneumoniae ATCC 10031 in presence of 2.5 mmol/L Ca2+ by broth microdilution method; type: functional
[25] = system: Pseudomonas aeruginosa; experiment: Antibacterial activity against Pseudomonas aeruginosa ATCC 9027 in presence of 20 umol/L Fe3+ by broth microdilution method; type: functional
[26] = system: Staphylococcus aureus; experiment: Antibacterial activity against Staphylococcus aureus ATCC 29213 assessed as loss in membrane integrity at 8 times MIC incubated for 4 hrs by LIVE/DEAD BacLight bacterial viability assay; type: functional, organism-based; conditions: Cell membrane
[27] = system: Escherichia coli; experiment: Antibacterial activity against Escherichia coli ATCC 25922 in presence of 20 umol/L Fe2+ by broth microdilution method; type: functional
[28] = system: Staphylococcus aureus; experiment: Antibacterial activity against methicillin resistant Staphylococcus aureus NCTC 10442 by microbroth dilution assay; type: functional
[29] = Cytotoxicity against mouse NCTC clone 929 cells assessed as cell survival rate at 50 ug/ml by CCK-8 assay relative to control; type: toxicity, cell-based; conditions: NCTC clone 929 (L929) cells, at 50 µg/mL, read-out: Activity
[30] = system: Klebsiella pneumoniae; experiment: Inhibition of biofilm formation in Klebsiella pneumoniae ATCC 10031 at 3.125 ug/ml by crystal violet staining assay relative to control; type: functional
[31] = Selectivity index, ratio of CC50 for cytotoxicity against mouse NCTC clone 929 cells to MIC for antibacterial activity against Staphylococcus aureus ATCC 29213; type: toxicity, cell-based; conditions: read-out: Selectivity Index
[32] = system: Klebsiella pneumoniae; experiment: Antibacterial activity against Klebsiella pneumoniae ATCC 10031 in presence of 4.5 mmol/L K+ by broth microdilution method; type: functional
[33] = system: Klebsiella pneumoniae; experiment: Antibacterial activity against Klebsiella pneumoniae ATCC 10031 assessed as reduction in bacterial load at 4 times MIC measured after 2 hrs by time kill assay relative to control; type: functional; design: scale not given: the % may be the effect or the level left
[34] = Selectivity index, ratio of CC50 for cytotoxicity against HEK293 cells to MIC for antibacterial activity against Staphylococcus aureus ATCC 29213; type: toxicity, cell-based; conditions: human, read-out: Selectivity Index
[35] = system: Staphylococcus aureus; experiment: Antibacterial activity against methicillin resistant Staphylococcus aureus N315 by microbroth dilution assay; type: functional
[36] = Selectivity index, ratio of CC50 for cytotoxicity against HEK293 cells to MIC for antibacterial activity against methicillin resistant Staphylococcus aureus NCTC 10442; type: toxicity, cell-based; conditions: human, read-out: Selectivity Index
[37] = Hemolytic activity in rabbit erythrocytes; type: toxicity, cell-based, Oryctolagus cuniculus, Erythrocyte
[38] = system: Klebsiella pneumoniae; experiment: Antibacterial activity against Klebsiella pneumoniae ATCC 10031 by microbroth dilution assay; type: functional
[39] = system: Klebsiella pneumoniae; experiment: Antibiofilm activity against 24 hrs preformed biofilm in Klebsiella pneumoniae ATCC 10031 assessed as reduction in biofilm viability at 0.78 ug/ml relative to control; type: functional; conditions: dose 0.78 µg/ml
[40] = system: Klebsiella pneumoniae; experiment: Antibacterial activity against Klebsiella pneumoniae ATCC 10031 in presence of 19 umol/L Fe2+ by broth microdilution method; type: functional
[41] = Cytotoxicity against HEK293 cells assessed as cell survival rate at 12.5 ug/ml by CCK-8 assay relative to control; type: toxicity, cell-based; conditions: human, at 12.5 µg/mL, read-out: Activity

CCCCCCCN1c2ccccc2Sc2ccc(OCC(=O)N[C@@H](CCCNC(=N)N)C(=O)N[C@@H](CCCNC(=N)N)C(N)=O)cc21
MIC [1]: 1.56 µg/mL
log(activity) [2]: >3
log(activity) [3]: 5.28
MIC [4]: 1.56 µg/mL
MIC [5]: 3.12 µg/mL
Activity [6]: 27.75%
log(activity) [7]: >3
Activity [8]: Active
Activity [9]: inactive
MIC [10]: 1.56 µg/mL
Activity [11]: 4.13%
MIC [12]: 1.56 µg/mL
MIC [13]: 3.12 µg/mL
MIC [14]: 3.12 µg/mL
MIC [15]: 1.56 µg/mL
MIC [16]: 3.12 µg/mL
viability at 50 ug/ml [17]: 56%
MIC [18]: 1.56 µg/mL
fold change (FC) [19]: < 4
MIC [20]: 1.56 µg/mL
MIC [21]: 3.12 µg/mL
Activity [22]: 15.93%
selectivity ratio [23]: 8
MIC [24]: 3.12 µg/mL
MIC [25]: 6.25 µg/mL
Activity [26]: Active
MIC [27]: 3.12 µg/mL
MIC [28]: 1.56 µg/mL (≈ 2.28 µM)
viability at 50 ug/ml [29]: 68.1%
inhibition at 3.125 µg/mL [30]: 73.8%
selectivity ratio [31]: 8
MIC [32]: 3.12 µg/mL
Activity [33]: >99.9%
selectivity ratio [34]: 8
MIC [35]: 1.56 µg/mL (≈ 2.28 µM)
selectivity ratio [36]: 8
HC50 [37]: 281 µg/mL
MIC [38]: 3.12 µg/mL (≈ 4.58 µM)
Activity [39]: 82.83%
MIC [40]: 6.25 µg/mL
viability at 12.5 ug/ml [41]: 80.6%
